Holding throughout (assay): ITC
Common to all, as to format: binding

In experiment [1] the target is IGP1^ECD (Arabidopsis thaliana, UniProt F4I3K3). To be noted: 10 mM Bis-Tris pH 6.0, 100 mM NaCl, 25 °C; LRR3-5 groove; 1:1 complex in crystal.
The target in experiment [2] is IGP1^ECD (Arabidopsis thaliana, UniProt F4I3K3, W220A). To be noted: 10 mM Bis-Tris pH 6.0, 100 mM NaCl, 25 °C.
Experiment [3] has as its target IGP1^ECD (Arabidopsis thaliana, UniProt F4I3K3, C591A/C592A). To be noted: 10 mM Bis-Tris pH 6.0, 100 mM NaCl, 25 °C.
Experiment [4] has as its target IGP1^ECD (Arabidopsis thaliana, UniProt F4I3K3, C591D/C592D). To be noted: 10 mM Bis-Tris pH 6.0, 100 mM NaCl, 25 °C.

SMILES strings stand for the structures.

The source of these data is article doi:10.1101/2025.10.05.680433v1 (biorxiv, 2025).

What is called Kd is the equilibrium constant for the complex coming apart. Lower therefore signals a tighter complex. `OC[C@H]1O[C@@H](O[C@H]2[C@H](O)[C@@H](O)[C@H](O[C@H]3[C@H](O)[C@@H](O)C(O)O[C@@H]3CO)O[C@@H]2CO)[C@H](O)[C@@H](O)[C@@H]1O` (stereo partly shown) [CEL3, cellotriose] showed a Kd on IGP1^ECD [1] of about 1.61 µM.
For `OC[C@H]1O[C@@H](O[C@H]2[C@H](O)[C@@H](O)[C@H](O[C@H]3[C@H](O)[C@@H](O)[C@H](O[C@H]4[C@H](O)[C@@H](O)C(O)O[C@@H]4CO)O[C@@H]3CO)O[C@@H]2CO)[C@H](O)[C@@H](O)[C@@H]1O` (stereo partly shown) [CEL4, cellotetraose], the Kd at IGP1^ECD [2] was about 18.6 µM; at IGP1^ECD [3], about 2.25 µM; at IGP1^ECD [4], about 17.9 µM.
